{
  "source": "patent US20190255138A1",
  "about": "“A NATURAL COMPOSITION TO INHIBIT BETA-SECRETASE AND ENHANCE BIOAVAILABILITY COMPRISING OF TURMERIC AND SESAME SEED EXTRACT” (priority 2016, published 2019)",
  "biological_target": "β-Secretase (human, recombinant) (Homo sapiens, UniProt P56817)",
  "sequence (P56817 46-501)": "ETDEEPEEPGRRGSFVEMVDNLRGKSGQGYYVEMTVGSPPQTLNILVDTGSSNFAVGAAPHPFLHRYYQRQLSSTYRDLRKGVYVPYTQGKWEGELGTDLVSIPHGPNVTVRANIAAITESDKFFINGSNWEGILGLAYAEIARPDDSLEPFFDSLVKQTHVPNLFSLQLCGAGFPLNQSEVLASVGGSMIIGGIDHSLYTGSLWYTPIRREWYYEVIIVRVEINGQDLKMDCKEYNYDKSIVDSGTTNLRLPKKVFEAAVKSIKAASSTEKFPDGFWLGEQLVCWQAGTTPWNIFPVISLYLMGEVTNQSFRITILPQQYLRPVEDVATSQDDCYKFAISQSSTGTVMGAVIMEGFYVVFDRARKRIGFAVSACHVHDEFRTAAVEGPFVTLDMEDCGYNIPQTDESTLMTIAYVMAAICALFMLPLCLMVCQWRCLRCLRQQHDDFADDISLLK",
  "experiment": "β-Secretase inhibitory activity assay (fluorescent substrate, HPLC peak area of degradative fragment)",
  "type": "biochemical",
  "conditions": "inhibitor 2 μg/ml; for Peak area ± S.D.: mean ± S.D. of triplicates",
  "description": "(§1) β-Secretase (human, recombinant), A fluorescent substrate [MOCAc-[…](Dnp) Arg-Arg-NH2] and a β-secretase inhibitor[[…]Sta-Val-Ala-Glu-Phe(Sta:(3S,4S)-4-amino-3-hydroxy-6-methylheptanoic acid)] Other reagents used in this study were analytical grade. Sesamin-sesamolin in different ratios prepared as per examples 10.\n(§2) Samples in a dimethylsulfoxide solution (2 μl), at an appropriate concentration, were diluted with 78 μl of assay buffer (20 mM acetate buffer, pH=4.5 containing 1% triton X-100) in a 96-well microplate. 10 μl of β-secretase solution in assay buffer (17.4 μg protein/ml) was added to the diluted solution, and incubated at 37° C. for 20 min. After incubation, 10 μl of substrate solution with assay buffer (0.1 mM) was added and incubated at 37° C. for 2 h. Fifty μl of reaction solution was then added to 450 μl of 2.5 M sodium acetate solution to terminate the reaction. The diluted solution was analyzed by HPLC applying the conditions listed below. Column: L-column ODS (Chemicals Evaluation and Research Institute, Tokyo, Japan, 4.6 i.d.×250 mm), mobile phase; 0.1% (v/v) formic acid/acetonitrile (0.1% (v/v) formic acid); 0 min (9:1), 17.5 min (5.5:4.5), 17.6 min (0.5:9.5), 22.5 min (0.5:9.5), column temperature: 40° C., flow rate; 1 ml/min, detection; fluorescent of excitation at 325 nm and emission at 395 nm, injection volume; 20 μl. The peak area of the peak derived from the degradative fluorescent fragment (retention time 15.7 min) was integrated and the peak area was found. The inhibitory activity of the sample was calculated using the following equation.\nInhibition (%)=100−[(Peak area from sample group)/(Peak area from control group)×100]\nas §1, with “recombinant).” for “recombinant),”, “acid)].” for “acid)]”, “Essential oil of turmeric (EOT) with” for “Sesamin-sesamolin in”, “percentage of α-turmerone” for “ratios”, “2.” for “10.”\nas §2, with “temperature;” for “temperature:”\nβ-Secretase (human, recombinant), A fluorescent substrate [MOCAc-[…](Dnp) Arg-Arg-NH2] and a β-secretase inhibitor[[…]Sta-Val-Ala-Glu-Phe(Sta:(3S,4S)-4-amino-3-hydroxy-6-methylheptanoic acid)]. Other reagents used in this study were analytical grade.\nSamples in a dimethylsulfoxide solution (2 μl), at an appropriate concentration, were diluted with […] of assay buffer (20 mM acetate buffer, pH=4.5 containing 1% triton X-100) in a 96-well microplate. 10 μl of β-secretase solution in assay buffer (17.4 μg protein/ml) was added to the diluted solution, and incubated at 37° C. for 20 min.",
  "note": "Non-standard residues stand in square brackets, D forms with d. No end group written: not given here. Sta = CC(C)C[C@H](N)[C@@H](O)CC(=O)O",
  "data": [
    {"substance": "KTEEISEVN[Sta]VAEF [Inhibitor]", "values": [
      {"measurement": "Inhibition (%)", "setting": "Example 17", "value": 47.33, "unit": "%"},
      {"measurement": "Peak area ± S.D.", "setting": "Example 17", "value": "2256512 ± 24323"},
      {"measurement": "Inhibition (%)", "setting": "Example 18", "value": 45.67, "unit": "%"},
      {"measurement": "Peak area ± S.D.", "setting": "Example 18", "value": "2386115 ± 25498"},
      {"measurement": "Inhibition (%)", "setting": "Example 19", "value": 48.31, "unit": "%"},
      {"measurement": "Peak area ± S.D.", "setting": "Example 19", "value": "2418426 ± 23621"},
      {"measurement": "Inhibition (%)", "setting": "Example 20", "value": 48.8, "unit": "%"},
      {"measurement": "Peak area ± S.D.", "setting": "Example 20", "value": "2299129 ± 25842"},
      {"measurement": "Inhibition (%)", "setting": "Example 22", "value": 45.77, "unit": "%"},
      {"measurement": "Peak area ± S.D.", "setting": "Example 22", "value": "2385632 ± 27453"}
    ]}
  ]
}
